Source: PubChem BioAssay (NCI)
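Values below derive from 48-hour exposures of cells grown in 96-well plates, with endpoints linearly interpolated between the two concentrations bracketing the appropriate inhibition level. TGI denotes the concentration required for complete inhibition of growth.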

Experiments:
Test in all cases: NCI tumour cell line growth inhibition, 48 h
SR leukemia = tested on: SR leukemia
CAKI-1 renal = tested on: CAKI-1 renal
UO-31 renal = tested on: UO-31 renal
SF-295 CNS = tested on: SF-295 CNS
NCI-H226 lung = tested on: NCI-H226 lung
OVCAR-4 ovarian = tested on: OVCAR-4 ovarian
RXF 393 renal = tested on: RXF 393 renal
SF-268 CNS = tested on: SF-268 CNS
IGROV1 ovarian = tested on: IGROV1 ovarian
K-562 leukemia = tested on: K-562 leukemia
SK-MEL-28 melanoma = tested on: SK-MEL-28 melanoma
HCC-2998 colon = tested on: HCC-2998 colon
HOP-62 NSCLC = tested on: HOP-62 NSCLC
SNB-19 CNS = tested on: SNB-19 CNS
NCI-H460 lung = tested on: NCI-H460 lung
HOP-92 NSCLC = tested on: HOP-92 NSCLC
OVCAR-8 ovarian = tested on: OVCAR-8 ovarian
CCRF-CEM leukemia = tested on: CCRF-CEM leukemia
LXFL 529 NSCLC = tested on: LXFL 529 NSCLC
EKVX NSCLC = tested on: EKVX NSCLC
RPMI-8226 leukemia = tested on: RPMI-8226 leukemia
TK-10 renal = tested on: TK-10 renal
HL-60(TB) leukemia = tested on: HL-60(TB) leukemia
SK-OV-3 ovarian = tested on: SK-OV-3 ovarian
M19-MEL melanoma = tested on: M19-MEL melanoma
MALME-3M melanoma = tested on: MALME-3M melanoma
KM20L2 colon = tested on: KM20L2 colon
HCT-116 colon = tested on: HCT-116 colon
A549 NSCLC = tested on: A549 NSCLC
LOX IMVI melanoma = tested on: LOX IMVI melanoma
OVCAR-5 ovarian = tested on: OVCAR-5 ovarian
SK-MEL-2 melanoma = tested on: SK-MEL-2 melanoma
M14 melanoma = tested on: M14 melanoma
SF-539 CNS = tested on: SF-539 CNS
KM12 colon = tested on: KM12 colon
COLO 205 colon = tested on: COLO 205 colon
UACC-62 melanoma = tested on: UACC-62 melanoma
NCI-H522 lung = tested on: NCI-H522 lung
MOLT-4 leukemia = tested on: MOLT-4 leukemia
HT29 colon = tested on: HT29 colon
DMS 273 small cell lung = tested on: DMS 273 small cell lung
ACHN renal = tested on: ACHN renal
DMS 114 small cell lung = tested on: DMS 114 small cell lung
SNB-75 CNS = tested on: SNB-75 CNS
OVCAR-3 ovarian = tested on: OVCAR-3 ovarian
SW-620 colon = tested on: SW-620 colon
HCT-15 colon = tested on: HCT-15 colon
SN12C renal = tested on: SN12C renal
U251 CNS = tested on: U251 CNS
NCI-H23 lung = tested on: NCI-H23 lung
SK-MEL-5 melanoma = tested on: SK-MEL-5 melanoma
UACC-257 melanoma = tested on: UACC-257 melanoma
A498 renal = tested on: A498 renal
SNB-78 CNS = tested on: SNB-78 CNS
786-0 renal = tested on: 786-0 renal
DLD-1 colon = tested on: DLD-1 colon

Compound `COc1ccc(/C=N/n2cnc3c(c2=O)S/C(=C2/SC(=S)N(c4ccc(C)cc4)C2=O)N3c2ccccc2)cc1` has a TGI (SR leukemia) greater than 100 µM, a TGI (CAKI-1 renal) greater than 10 µM and a TGI (UO-31 renal) greater than 100 µM. For the same compound, the TGI (SF-295 CNS) was 38.1 µM, the TGI (NCI-H226 lung) was greater than 100 µM and the TGI (OVCAR-4 ovarian) was 94.1 µM. The TGI (RXF 393 renal) was 35.8 µM, the TGI (SF-268 CNS) was 99.5 µM and the TGI (IGROV1 ovarian) was greater than 100 µM. It also gave a TGI (K-562 leukemia) greater than 10 µM, a TGI (SK-MEL-28 melanoma) greater than 100 µM and a TGI (HCC-2998 colon) greater than 100 µM. It also gave a TGI (HOP-62 NSCLC) of 70.9 µM, a TGI (SNB-19 CNS) of 83.5 µM and a TGI (NCI-H460 lung) greater than 100 µM. It also gave a TGI (HOP-92 NSCLC) greater than 100 µM, a TGI (OVCAR-8 ovarian) greater than 100 µM and a TGI (CCRF-CEM leukemia) greater than 100 µM. The TGI (LXFL 529 NSCLC) was greater than 100 µM, the TGI (EKVX NSCLC) was greater than 100 µM and the TGI (RPMI-8226 leukemia) was greater than 100 µM. The TGI (TK-10 renal) was greater than 100 µM, the TGI (HL-60(TB) leukemia) was greater than 100 µM and the TGI (SK-OV-3 ovarian) was greater than 100 µM. For the same compound, the TGI (M19-MEL melanoma) was greater than 100 µM, the TGI (MALME-3M melanoma) was 60.3 µM and the TGI (KM20L2 colon) was greater than 100 µM. The TGI (HCT-116 colon) was greater than 100 µM, the TGI (A549 NSCLC) was greater than 100 µM and the TGI (LOX IMVI melanoma) was greater than 100 µM. The TGI (OVCAR-5 ovarian) was greater than 100 µM, the TGI (SK-MEL-2 melanoma) was greater than 100 µM and the TGI (M14 melanoma) was greater than 100 µM. The TGI (SF-539 CNS) was greater than 100 µM, the TGI (KM12 colon) was greater than 100 µM and the TGI (COLO 205 colon) was greater than 100 µM. It also gave a TGI (UACC-62 melanoma) of 51.9 µM, a TGI (NCI-H522 lung) greater than 100 µM and a TGI (MOLT-4 leukemia) greater than 10 µM. For the same compound, the TGI (HT29 colon) was greater than 100 µM, the TGI (DMS 273 small cell lung) was greater than 100 µM and the TGI (ACHN renal) was greater than 100 µM. It also gave a TGI (DMS 114 small cell lung) greater than 100 µM, a TGI (SNB-75 CNS) greater than 100 µM and a TGI (OVCAR-3 ovarian) of 74.2 µM. It also gave a TGI (SW-620 colon) greater than 100 µM, a TGI (HCT-15 colon) greater than 100 µM and a TGI (SN12C renal) greater than 100 µM.
With `CCOc1ccccc1N1C(=O)C(=O)C(c2nc3ccccc3o2)/C(=N\N)C1=O` (stereo unspecified) the TGI (CAKI-1 renal) was greater than 100 µM, the TGI (U251 CNS) was greater than 100 µM and the TGI (UO-31 renal) was 91 µM. For the same compound, the TGI (SF-295 CNS) was greater than 100 µM, the TGI (NCI-H226 lung) was greater than 100 µM and the TGI (OVCAR-4 ovarian) was greater than 100 µM. It also gave a TGI (RXF 393 renal) greater than 100 µM, a TGI (SF-268 CNS) greater than 100 µM and a TGI (IGROV1 ovarian) greater than 100 µM. For the same compound, the TGI (K-562 leukemia) was greater than 100 µM, the TGI (SK-MEL-28 melanoma) was greater than 100 µM and the TGI (HCC-2998 colon) was greater than 100 µM. For the same compound, the TGI (NCI-H23 lung) was greater than 100 µM, the TGI (HOP-62 NSCLC) was greater than 100 µM and the TGI (SNB-19 CNS) was greater than 100 µM. It also gave a TGI (HOP-92 NSCLC) greater than 100 µM, a TGI (SK-MEL-5 melanoma) greater than 100 µM and a TGI (OVCAR-8 ovarian) greater than 100 µM. It also gave a TGI (CCRF-CEM leukemia) greater than 100 µM, a TGI (LXFL 529 NSCLC) greater than 100 µM and a TGI (EKVX NSCLC) greater than 100 µM. It also gave a TGI (RPMI-8226 leukemia) greater than 100 µM, a TGI (TK-10 renal) greater than 100 µM and a TGI (HL-60(TB) leukemia) greater than 100 µM. The TGI (SK-OV-3 ovarian) was greater than 100 µM, the TGI (M19-MEL melanoma) was greater than 100 µM and the TGI (MALME-3M melanoma) was greater than 100 µM. For the same compound, the TGI (KM20L2 colon) was greater than 100 µM, the TGI (UACC-257 melanoma) was greater than 100 µM and the TGI (HCT-116 colon) was greater than 100 µM. It also gave a TGI (A498 renal) greater than 100 µM, a TGI (A549 NSCLC) greater than 100 µM and a TGI (LOX IMVI melanoma) greater than 100 µM. The TGI (OVCAR-5 ovarian) was greater than 100 µM, the TGI (SK-MEL-2 melanoma) was greater than 100 µM and the TGI (M14 melanoma) was greater than 100 µM. For the same compound, the TGI (SF-539 CNS) was greater than 100 µM, the TGI (KM12 colon) was greater than 100 µM and the TGI (COLO 205 colon) was greater than 100 µM. For the same compound, the TGI (SNB-78 CNS) was greater than 100 µM, the TGI (UACC-62 melanoma) was greater than 100 µM and the TGI (NCI-H522 lung) was greater than 100 µM. It also gave a TGI (HT29 colon) greater than 100 µM, a TGI (DMS 273 small cell lung) greater than 100 µM and a TGI (786-0 renal) greater than 100 µM. For the same compound, the TGI (ACHN renal) was greater than 100 µM, the TGI (DMS 114 small cell lung) was greater than 100 µM and the TGI (DLD-1 colon) was greater than 100 µM. The TGI (SNB-75 CNS) was greater than 100 µM, the TGI (OVCAR-3 ovarian) was greater than 100 µM and the TGI (SW-620 colon) was greater than 100 µM. The TGI (HCT-15 colon) was greater than 100 µM and the TGI (SN12C renal) was greater than 100 µM.
